Activity calls are given as the source filed them. How the calls were made is not given here.
Test system: CCRIS mutagenicity, Ames/micronucleus/aberration tests
Experiment: CCRIS mutagenicity studies
[1] = Test System: AMES SALMONELLA TYPHIMURIUM, Strain/Indicator: TA98, Metabolic Activation: NONE, Method: PREINCUBATION
[2] = Test System: AMES SALMONELLA TYPHIMURIUM, Strain/Indicator: TA98, Metabolic Activation: RAT, LIVER, S-9, AROCLOR 1254, Method: STANDARD PLATE
[3] = Test System: AMES SALMONELLA TYPHIMURIUM, Strain/Indicator: TA100, Metabolic Activation: NONE, Method: PREINCUBATION
[4] = Test System: AMES SALMONELLA TYPHIMURIUM, Strain/Indicator: TA100, Metabolic Activation: NONE, Method: STANDARD PLATE
[5] = Test System: AMES SALMONELLA TYPHIMURIUM, Strain/Indicator: TA100, Metabolic Activation: RAT, LIVER, S-9, AROCLOR 1254, Method: STANDARD PLATE
[6] = Test System: AMES SALMONELLA TYPHIMURIUM, Strain/Indicator: TA1537, Metabolic Activation: NONE, Method: STANDARD PLATE
[7] = Test System: AMES SALMONELLA TYPHIMURIUM, Strain/Indicator: TA100, Metabolic Activation: RAT, LIVER, S-9, AROCLOR 1254, Method: PREINCUBATION

For `[Cl][Cr]([Cl])[Cl]`, the mutagenic call (End Point: IN VITRO MICRONUCLEUS, Test System: CHL/IU CELLS, Metabolic Activation: NONE) was “active; positive”, the mutagenic call (Test System: AMES SALMONELLA TYPHIMURIUM, Strain/Indicator: TA94, Metabolic Activation: NONE, Method: STANDARD PLATE) was “active; positive” and the mutagenic call (Test System: AMES SALMONELLA TYPHIMURIUM, Strain/Indicator: TA98, Metabolic Activation: HAMSTER, LIVER, S-9, AROCLOR 1254, Method: STANDARD PLATE) was “inactive; negative”. For the same compound, the mutagenic call [1] was “inactive; negative”, the mutagenic call [2] was “inactive; negative” and the mutagenic call (Test System: AMES SALMONELLA TYPHIMURIUM, Strain/Indicator: TA98, Metabolic Activation: RAT, LIVER, S-9, PHENOBARBITAL AND BETA-NAPHTHOFLAVONE, Method: PREINCUBATION) was “inactive; negative”. For the same compound, the mutagenic call (Test System: AMES SALMONELLA TYPHIMURIUM, Strain/Indicator: TA100, Metabolic Activation: HAMSTER, LIVER, S-9, AROCLOR 1254, Method: STANDARD PLATE) was “inactive; negative”, the mutagenic call [3] was “inactive; negative” and the mutagenic call [4] was “inactive; negative”. The mutagenic call [5] was “inactive; negative”, the mutagenic call (Test System: AMES SALMONELLA TYPHIMURIUM, Strain/Indicator: TA100, Metabolic Activation: RAT, LIVER, S-9, PHENOBARBITAL AND BETA-NAPHTHOFLAVONE, Method: PREINCUBATION) was “inactive; negative” and the mutagenic call (Test System: AMES SALMONELLA TYPHIMURIUM, Strain/Indicator: TA102, Metabolic Activation: HAMSTER, LIVER, S-9, AROCLOR 1254, Method: STANDARD PLATE) was “active; positive”. The mutagenic call (Test System: AMES SALMONELLA TYPHIMURIUM, Strain/Indicator: TA102, Metabolic Activation: RAT, LIVER, S-9, AROCLOR 1254, Method: STANDARD PLATE) was “active; positive”, the mutagenic call (Test System: AMES SALMONELLA TYPHIMURIUM, Strain/Indicator: TA1535, Metabolic Activation: HAMSTER, LIVER, S-9, AROCLOR 1254, Method: STANDARD PLATE) was “inactive; negative” and the mutagenic call (Test System: AMES SALMONELLA TYPHIMURIUM, Strain/Indicator: TA1535, Metabolic Activation: NONE, Method: PREINCUBATION) was “inactive; negative”. For the same compound, the mutagenic call (Test System: AMES SALMONELLA TYPHIMURIUM, Strain/Indicator: TA1535, Metabolic Activation: NONE, Method: STANDARD PLATE) was “inactive; negative”, the mutagenic call (Test System: AMES SALMONELLA TYPHIMURIUM, Strain/Indicator: TA1535, Metabolic Activation: RAT, LIVER, S-9, AROCLOR 1254, Method: STANDARD PLATE) was “inactive; negative” and the mutagenic call (Test System: AMES SALMONELLA TYPHIMURIUM, Strain/Indicator: TA1535, Metabolic Activation: RAT, LIVER, S-9, PHENOBARBITAL AND BETA-NAPHTHOFLAVONE, Method: PREINCUBATION) was “inactive; negative”. For the same compound, the mutagenic call (Test System: AMES SALMONELLA TYPHIMURIUM, Strain/Indicator: TA1537, Metabolic Activation: HAMSTER, LIVER, S-9, AROCLOR 1254, Method: STANDARD PLATE) was “inactive; negative”, the mutagenic call (Test System: AMES SALMONELLA TYPHIMURIUM, Strain/Indicator: TA1537, Metabolic Activation: NONE, Method: PREINCUBATION) was “inactive; negative” and the mutagenic call [6] was “inactive; negative”. The mutagenic call (Test System: AMES SALMONELLA TYPHIMURIUM, Strain/Indicator: TA1537, Metabolic Activation: RAT, LIVER, S-9, AROCLOR 1254, Method: STANDARD PLATE) was “inactive; negative”, the mutagenic call (Test System: AMES SALMONELLA TYPHIMURIUM, Strain/Indicator: TA1537, Metabolic Activation: RAT, LIVER, S-9, PHENOBARBITAL AND BETA-NAPHTHOFLAVONE, Method: PREINCUBATION) was “inactive; negative” and the mutagenic call (Test System: AMES SALMONELLA TYPHIMURIUM, Strain/Indicator: TA1538, Metabolic Activation: NONE, Method: PREINCUBATION) was “inactive; negative”. For the same compound, the mutagenic call (Test System: AMES SALMONELLA TYPHIMURIUM, Strain/Indicator: TA1538, Metabolic Activation: RAT, LIVER, S-9, PHENOBARBITAL AND BETA-NAPHTHOFLAVONE, Method: PREINCUBATION) was “inactive; negative”, the mutagenic call (Test System: CHINESE HAMSTER OVARY CELLS, Strain/Indicator: CHO CELLS (HPRT)/6-THIOGUANINE, Metabolic Activation: NONE, Method: STANDARD PLATE) was “active; positive” and the mutagenic call (Test System: E. COLI, Strain/Indicator: WP2 UVRA, Metabolic Activation: NONE, Method: SPOT TEST) was “inactive; negative”. For the same compound, the mutagenic call (Test System: E. COLI, Strain/Indicator: WP2UVRA, Metabolic Activation: RAT LIVER S-9, PHENOBARBITAL AND BETA-NAPHTHOFLAVONE, Method: PREINCUBATION) was “inactive; negative”, the mutagenic call (Test System: E.COLI, Strain/Indicator: WP2UVRA, Metabolic Activation: NONE, Method: PREINCUBATION) was “inactive; negative” and the mutagenic call (Test System: Mouse lymphoma, Strain/Indicator: L5178Y (tk+/tk-), Metabolic Activation: None, Method: Suspension/plate) was “inactive; negative”. For the same compound, the mutagenic call (Test System: Mouse lymphoma, Strain/Indicator: L5178Y (tk+/tk-), Metabolic Activation: Rat, Liver, S-9, Aroclor 1254, Method: Suspension/plate) was “active; equivocal (previous evaluation positive)”.

`CC(NCc1ccccc1)C(=O)NCc1ccccc1` (stereo unspecified) was tested, and the mutagenic call [4] was “inactive; negative”.

In the case of `c1ccc(COC[C@@H]2CO2)cc1`, the mutagenic call [4] was “active; positive”.

With `[Cl][Sb]([Cl])[Cl]` the mutagenic call [1] was “inactive; negative”, the mutagenic call (Test System: AMES SALMONELLA TYPHIMURIUM, Strain/Indicator: TA98, Metabolic Activation: RAT, LIVER, S-9 (10%), Method: PREINCUBATION) was “inactive; negative” and the mutagenic call [3] was “inactive; negative”. The mutagenic call (Test System: AMES SALMONELLA TYPHIMURIUM, Strain/Indicator: TA100, Metabolic Activation: RAT, LIVER, S-9 (10%), Method: PREINCUBATION) was “inactive; negative”.

`Oc1cc2c3c(cc4cccc5ccc1c3c54)-c1ccccc1-2` was tested, and the mutagenic call [5] was “inactive; negative”.

With `O=C(/C=C/c1ccc(O)c(O)c1)O[C@H](Cc1ccc(O)c(O)c1)C(=O)O` the mutagenic call (End Point: In vivo micronucleus, Species: Mouse, Strain/Sex: Swiss/Male, Route: Oral) was “inactive; negative”.

With `Fc1cccc2cccnc12` the mutagenic call (End Point: In vitro chromosomal aberrations, Test System: Chinese hamster lung fibroblast cells (CHL/IU), Metabolic Activation: Rat, Liver, S-9) was “active; positive, described as marginally clastogenic at nontoxic doses. (information de”, the mutagenic call (End Point: In vitro micronucleus, Test System: Chinese hamster lung fibroblast cells (CHL/IU), Metabolic Activation: Rat, Liver, S-9) was “inactive; negative, cytotoxic at 0.2 mg/ml. (information derived from a figure)” and the mutagenic call (Test System: AMES SALMONELLA TYPHIMURIUM, Strain/Indicator: TA100, Metabolic Activation: RAT LIVER S-9, PHENOBARBITAL AND 5,6-BENZOFLAVONE, Method: PREINCUBATION) was “active; positive”. The mutagenic call [7] was “active; positive”, the mutagenic call (Test System: AMES SALMONELLA TYPHIMURIUM, Strain/Indicator: TA100, Metabolic Activation: RAT, LIVER, S-9, PHENOBARBITAL AND 5,6-BENZOFLAVONE, Method: PREINCUBATION) was “active; positive” and the mutagenic call (Test System: AMES SALMONELLA TYPHIMURIUM, Strain/Indicator: TA100, Metabolic Activation: RAT, LIVER, S-9, PHENOBARBITAL AND 5,6-NAPHTHOFLAVONE, Method: PREINCUBATION) was “active; positive”. The mutagenic call (Test System: AMES SALMONELLA TYPHIMURIUM, Strain/Indicator: TA100, Metabolic Activation: S-9, Method: PREINCUBATION) was “active; positive” and the mutagenic call (Test System: UDS RODENT HEPATOCYTES, Strain/Indicator: THY INCORP (NON-S-PHASE), Metabolic Activation: NONE, Method: AUTORADIOGRAPHY) was “active; positive”.

For `Cc1nn(C)c(NC(=O)CNCCCN2CCCCC2C)c1C(=O)c1ccccc1F` (stereo unspecified), the mutagenic call (Test System: AMES SALMONELLA TYPHIMURIUM, Strain/Indicator: TA98, Metabolic Activation: RAT, LIVER, S-9, AROCLOR 1254, Method: PREINCUBATION) was “active; positive”, the mutagenic call [2] was “inactive; negative” and the mutagenic call [7] was “active; positive”. For the same compound, the mutagenic call [5] was “inactive; negative”.

With `COC(=O)c1cc2c(c3c1ccc1c(OC)cccc13)OCO2` the mutagenic call (Test System: AMES SALMONELLA TYPHIMURIUM, Strain/Indicator: TA98, Metabolic Activation: NONE, Method: STANDARD PLATE) was “active; positive”, the mutagenic call [4] was “active; positive” and the mutagenic call (Test System: AMES SALMONELLA TYPHIMURIUM, Strain/Indicator: TA102, Metabolic Activation: NONE, Method: STANDARD PLATE) was “active; positive”. The mutagenic call [6] was “active; positive” and the mutagenic call (Test System: AMES SALMONELLA TYPHIMURIUM, Strain/Indicator: TM677/8-AZAGUANINE, Metabolic Activation: NONE, Method: SUSPENSION/PLATE) was “inactive; negative”.

— PubChem BioAssay AID1259407 (Chemical Carcinogenesis Research Information System (CCRIS), 2018)
